In this assay the target is T1, cPLA2 (Homo sapiens, UniProt P47712).
T1 sequence (P47712 1-749): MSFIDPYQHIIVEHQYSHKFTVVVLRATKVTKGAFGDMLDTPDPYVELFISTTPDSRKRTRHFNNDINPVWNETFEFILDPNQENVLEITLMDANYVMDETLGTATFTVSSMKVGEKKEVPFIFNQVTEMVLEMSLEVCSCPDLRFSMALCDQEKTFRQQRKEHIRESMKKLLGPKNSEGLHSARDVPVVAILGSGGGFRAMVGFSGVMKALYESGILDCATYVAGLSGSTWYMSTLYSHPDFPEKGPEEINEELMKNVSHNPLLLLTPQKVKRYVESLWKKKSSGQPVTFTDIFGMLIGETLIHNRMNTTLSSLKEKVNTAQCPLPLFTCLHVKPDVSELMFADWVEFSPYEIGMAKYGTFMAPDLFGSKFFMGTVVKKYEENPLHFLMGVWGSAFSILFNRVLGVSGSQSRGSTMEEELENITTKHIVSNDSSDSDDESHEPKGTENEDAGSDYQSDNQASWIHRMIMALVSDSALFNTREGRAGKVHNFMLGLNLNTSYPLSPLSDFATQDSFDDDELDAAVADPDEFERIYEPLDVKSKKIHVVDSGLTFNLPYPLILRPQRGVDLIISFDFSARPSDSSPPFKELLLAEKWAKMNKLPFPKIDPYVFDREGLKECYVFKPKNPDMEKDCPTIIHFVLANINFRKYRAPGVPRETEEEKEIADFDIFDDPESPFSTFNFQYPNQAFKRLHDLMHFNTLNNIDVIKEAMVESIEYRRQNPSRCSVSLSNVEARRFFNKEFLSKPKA
Kind of assay: Coumarine assay (hydrolysis of 7-hydroxycoumarinyl 6-heptenoate). The assay is classed as biochemical. Particulars: 60 μM 7-hydroxycoumarinyl 6-heptenoate, pH 7.5; read-out: Coumarin IC50.

Results on 22 compounds are retold here after US7605156B2, “Methods for the use of inhibitors of cytosolic phospholipase A2” (Wyeth, priority 2001, dated 2009).

By IC50 is commonly meant the concentration that gives 50% inhibition.

`O=C(O)c1ccc(CCCc2c(CCNS(=O)(=O)c3ccsc3)n(C(c3ccccc3)c3ccccc3)c3ccc(Cl)cc23)cc1` [Example 180, 4-[3-(1-benzhydryl-5-chloro-2-{2-[(thien-3-ylsulfonyl)amino]ethyl}-1H-indol-3-yl)propyl]benzoic acid]: the IC50 worked out at 230 nM.

As to “4-(3-{2-[2-({[2-(aminomethyl)phenyl]sulfonyl}amino)ethyl]-1-benzhydryl-5-chloro-1H-indol-3-yl}propyl)benzoic acid [Example 156]”, the half-maximal inhibitory concentration (IC50) was determined as 160 nM.

Turning to `O=C(O)c1ccc(OCCc2c(CCNS(=O)(=O)c3ccc(N4CCOCC4)nc3)n(C(c3ccccc3)c3ccccc3)c3ccc(Cl)cc23)cc1` [Example 179, 4-{2-[1-benzhydryl-5-chloro-2-(2-{[(6-morpholin-4-ylpyridin-3-yl)sulfonyl]amino}ethyl)-1H-indol-3-yl]ethoxy}benzoic acid], the concentration for half-maximal inhibition (IC50) was 900 nM.

For `Nc1ccccc1CS(=O)(=O)NCCc1c(CCOc2ccc(C(=O)O)cc2)c2cc(Cl)ccc2n1C(c1ccccc1)c1ccccc1` [Example 16], the IC50 worked out at 980 nM.

Turning to `O=C(O)c1ccc(CCCc2c(CCNS(=O)(=O)c3ccc(N4CCOCC4)nc3)n(C(c3ccccc3)c3ccccc3)c3ccc(Cl)cc23)cc1` [Example 181, 4-{3-[1-benzhydryl-5-chloro-2-(2-{[(6-morpholin-4-ylpyridin-3-yl)sulfonyl]amino}ethyl)-1H-indol-3-yl]propyl}benzoic acid], the IC50 is 320 nM.

As to `O=C(O)c1ccc(OCCc2c(CCNS(=O)(=O)c3ccccc3Cl)n(C(c3ccccc3)c3ccccc3)c3ccc(Cl)cc23)cc1` [Example 255, 4-{2-[1-benzhydryl-5-chloro-2-(2{[(2-chlorophenyl)sulfonyl]amino}ethyl)-1H-indol-3-yl]ethoxy}benzoic acid], the IC50 was 500 nM.

Turning to `CC(=O)N1C(C)CN(CCS(=O)(=O)NCCc2c(CCOc3ccc(C(=O)O)cc3)c3cc(Cl)ccc3n2C(c2ccccc2)c2ccccc2)CC1C` (stereo not shown) [Example 244, 4-[2-(2-{2-[2-(4-Acetyl-3,5-dimethyl-piperazin-1-yl)-ethanesulfonylamino]-ethyl}-1-benzhydryl-5-chloro-1H-indol-3-yl)-ethoxy]-benzoic acid], the concentration for half-maximal inhibition (IC50) amounted to 1300 nM.

Consider `O=C(O)c1ccc(CCCc2c(CCNS(=O)(=O)c3ccccc3C(F)(F)F)n(C(c3ccccc3)c3ccccc3)c3ccc(Cl)cc23)cc1` [Example 208], for which the IC50 came to 240 nM.

Take `Cc1c(S(=O)(=O)NCCc2c(CCCc3ccc(C(=O)O)cc3)c3cc(Cl)ccc3n2C(c2ccccc2)c2ccccc2)cnn1-c1ccccc1` [Example 210, 4-{3-[1-benzhydryl-5-chloro-2-(2-{[(5-methyl-1-phenyl-1H-pyrazol-4-yl)sulfonyl]amino}ethyl)-1H-indol-3-yl]propyl}benzoic acid]: the half-maximal inhibitory concentration (IC50) turned out to be 150 nM.

Consider `O=C(O)c1ccc(OCCc2c(CCNS(=O)(=O)c3ccccc3C(F)(F)F)n(C(c3ccccc3)c3ccccc3)c3ccc(Cl)cc23)cc1` [Example 209, 4-[2-{1-Benzhydryl-5-chloro-2-[2-({[2-(trifluoromethyl)phenyl]sulfonyl}amino)ethyl]-1H-indol-3-yl}ethoxy)benzoic acid], for which the concentration for half-maximal inhibition (IC50) was 350 nM.

As to `O=C(O)c1ccc(OCCc2c(CCNS(=O)(=O)Cc3ccccc3)n(C(c3ccccc3)c3ccccc3)c3ccc(N4CCOCC4)cc23)cc1` [Example 33, 4-[2-(1-benzhydryl-2-{2-[(benzylsulfonyl)amino]ethyl}-5-morpholin-4-yl-1H-indol-′3-yl)ethoxy]benzoic acid], the IC50 was 2900 nM.

Take `O=C(O)c1ccc(OCCc2c(CCNS(=O)(=O)c3cccc(-c4ccccc4)c3)n(C(c3ccccc3)c3ccccc3)c3ccc(Cl)cc23)cc1` [Example 207, 4-[2-(1-benzhydryl-2-{2-[(1,1′-biphenyl-3-ylsulfonyl)amino]ethyl}-5-chloro-1H-indol-3-yl)ethoxy]benzoic acid]: the IC50 is 1400 nM.

Take `COC[C@@H]1CCCN1CCS(=O)(=O)NCCc1c(CCOc2ccc(C(=O)O)cc2)c2cc(Cl)ccc2n1C(c1ccccc1)c1ccccc1` [Example 248, 4-[2-(1-benzhydryl-5-chloro-2-{2-[({2-[(2S)-2-(methoxymethyl)pyrrolidin-1-yl]ethyl}sulfonyl)amino]ethyl}-1H-indol-3-yl)ethoxy]benzoic acid]: the 50% inhibitory concentration (IC50) was determined as 1200 nM.

With `O=C(O)c1ccc(OCCc2c(CCNS(=O)(=O)CSc3ccc(Cl)cc3Cl)n(C(c3ccccc3)c3ccccc3)c3ccc(Cl)cc23)cc1` [Example 287, 4-[2-(1-benzhydryl-5-chloro-2-{2-[([[(2,4-dichlorophenyl)sulfanyl]methyl}sulfonyl)amino]ethyl}-1H-indol-3-yl)ethoxy]benzoic acid], the IC50 was determined as 420 nM.

As to `Cc1cccc(Cl)c1S(=O)(=O)NCCc1c(CCOc2ccc(C(=O)O)cc2)c2cc(Cl)ccc2n1C(c1ccccc1)c1ccccc1` [Example 227, 4-{2-[1-benzhydryl-5-chloro-2-(2-{[(2-chloro-6-methylphenyl)sulfonyl]amino}ethyl)-1H-indol-3-yl]ethoxy}benzoic acid], the IC50 was determined as 160 nM.

Regarding `O=C(O)c1ccc(CCCc2c(CCNS(=O)(=O)c3ccccc3Br)n(C(c3ccccc3)c3ccccc3)c3ccc(Cl)cc23)cc1` [Example 158, 4-{3-[1-benzhydryl-2-(2-{[(2-bromophenyl)sulfonyl]amino}ethyl)-5-chloro-1H-indol-3-yl]propyl}benzoic acid], the IC50 worked out at 200 nM.

`CC1CCCN(CCS(=O)(=O)NCCc2c(CCOc3ccc(C(=O)O)cc3)c3cc(Cl)ccc3n2C(c2ccccc2)c2ccccc2)C1` (stereo not shown) [Example 246, 4-(2-{I-benzhydryl-5-chloro-2-[2-({[2-(3-methylpiperidin-1-yl)ethyl]sulfonyl}amino)ethyl]-1H-indol-3-yl}ethoxy)benzoic acid]: the half-maximal inhibitory concentration (IC50) was 1200 nM.

With “4-[2-(1-benzhydryl-5-chloro-2-{2-[({2-[(3R,5S)-3,5-dimethylmorpholin-4-yl]ethyl}sulfonyl)amino]ethyl}-1H-indol-3-yl)ethoxy]benzoic acid [Example 250]”, the 50% inhibitory concentration (IC50) was 2100 nM.

Regarding `O=C(O)CCc1ccc(S(=O)(=O)CCc2c(CCNS(=O)(=O)c3ccccc3Cl)n(C(c3ccccc3)c3ccccc3)c3ccc(Cl)cc23)cc1` [Example 259, 3-[4-({2-[1-benzhydryl-5-chloro-2-(2-{[(2-chlorophenyl)sulfonyl]amino}ethyl)-1H-indol-3-yl]ethyl}sulfonyl)phenyl]propanoic acid], the IC50 turned out to be 200 nM.

Consider `Cc1cc(C)c(S(=O)(=O)NCCc2c(CCOc3ccc(C(=O)O)cc3)c3cc(Cl)ccc3n2C(c2ccccc2)c2ccccc2)c(C)c1` [Example 266, 4-[2-(1-benzhydryl-5-chloro-2-{2-[(mesitylsulfonyl)amino]ethyl}-1H-indol-3-yl)ethoxy]benzoic acid], for which the IC50 was found to be 160 nM.

Consider `Cc1cccc(C)c1S(=O)(=O)NCCc1c(CCOc2ccc(C(=O)O)cc2)c2cc(Cl)ccc2n1C(c1ccccc1)c1ccccc1` [Example 271, 4-{2-[1-benzhydryl-5-chloro-2-(2-{[(2,6-dimethylphenyl)sulfonyl]amino}ethyl)-1H-indol-3-yl]ethoxy}benzoic acid], for which the IC50 is 150 nM.

With `Cc1c(Cl)cccc1S(=O)(=O)NCCc1c(CCCc2ccc(C(=O)O)cc2)c2cc(Cl)ccc2n1C(c1ccccc1)c1ccccc1` [Example 240, 4-{3-[1-benzhydryl-5-chloro-2(2-{[(3-chloro-2-methylphenyl)sulfonyl]amino}ethyl)-1H-indol-3-yl]propyl}benzoic acid], the IC50 was 320 nM.
